Assay [1] has as its target recombinant human prolyl oligopeptidase (PREP) (Homo sapiens (Human), UniProt P48147). Description: In vitro assay prolyl oligopeptidase IC50 (Example 21). The class given is biochemical. As for the experimental part: (§1) The purpose of this assay is to determine the IC50 of various inhibitors against recombinant human dipeptidyl peptidase IV (DPPIV), fibroblast activation protein (FAP) or prolyl oligopeptidase (PREP).
(§2) The assays are conducted in the following steps: • 1 Dissolve the compound in DMSO to a final concentration of 100 mM. From this, prepare a 1 mM stock at pH 7.5 in 50 mM Tris, 140 mM NaCl Buffer (FAP)/pH 7.5 in 25 mM Tris, 250 mM NaCl Buffer/[…]. • 2. Serial dilute (1:10) the 1 mM compound stocks prepared previously into the appropriate assay buffer (FAP: 50 mM Tris, 140 mM NaCl, pH 7.5/PREP: 25 mM Tris, 0.25 M NaCl, pH 7.5/DPPIV: 25 mM Tris, pH 8.0) to one row of a 96-well plate. • 3. […] Dilute the enzymes into their appropriate assay buffers. The final enzyme concentrations should be 0.1, 1.2, and 0.6 nM for DPPIV, FAP and PREP respectively. Add 180 μL to each well needed in columns 2-10. Column 1(A,B,C) should be prepared with 200 μl of appropriate assay buffer as control. Column 1(D,E,F,G,H) should be prepared with 20 μl of appropriate assay buffer and 180 ul enzyme as no inhibitor control. • 5. Add 20 μL of the compound of interest from the dilution plate prepared in step 2 to columns 2-10 of the assay plate where appropriate. Each sample should be tested in triplicate. Allow this to incubate for 10 minutes at room temperature, shaking the plate for the first two minutes. • 6. Add 10 μL of 20× substrate prepared in step 3 to each well and allow this to incubate for 15 minutes at room temperature, shaking the plate for the first two minutes. • 7. Read the fluorescence at λex: 380, λem: 460. (DPcore=[dAla|dSer|Gly]-[boroPro|Pro-nitrile], XXaa=alpha-amino acid)

In assay [2] the target is recombinant human fibroblast activation protein (FAP) (Homo sapiens (Human), UniProt Q12884). Description: In vitro assay fibroblast activation protein IC50 (Example 21). In kind it is biochemical. As for the experimental part: as §1, §2
Sequence of recombinant human fibroblast activation protein (FAP) (Q12884 whole entry): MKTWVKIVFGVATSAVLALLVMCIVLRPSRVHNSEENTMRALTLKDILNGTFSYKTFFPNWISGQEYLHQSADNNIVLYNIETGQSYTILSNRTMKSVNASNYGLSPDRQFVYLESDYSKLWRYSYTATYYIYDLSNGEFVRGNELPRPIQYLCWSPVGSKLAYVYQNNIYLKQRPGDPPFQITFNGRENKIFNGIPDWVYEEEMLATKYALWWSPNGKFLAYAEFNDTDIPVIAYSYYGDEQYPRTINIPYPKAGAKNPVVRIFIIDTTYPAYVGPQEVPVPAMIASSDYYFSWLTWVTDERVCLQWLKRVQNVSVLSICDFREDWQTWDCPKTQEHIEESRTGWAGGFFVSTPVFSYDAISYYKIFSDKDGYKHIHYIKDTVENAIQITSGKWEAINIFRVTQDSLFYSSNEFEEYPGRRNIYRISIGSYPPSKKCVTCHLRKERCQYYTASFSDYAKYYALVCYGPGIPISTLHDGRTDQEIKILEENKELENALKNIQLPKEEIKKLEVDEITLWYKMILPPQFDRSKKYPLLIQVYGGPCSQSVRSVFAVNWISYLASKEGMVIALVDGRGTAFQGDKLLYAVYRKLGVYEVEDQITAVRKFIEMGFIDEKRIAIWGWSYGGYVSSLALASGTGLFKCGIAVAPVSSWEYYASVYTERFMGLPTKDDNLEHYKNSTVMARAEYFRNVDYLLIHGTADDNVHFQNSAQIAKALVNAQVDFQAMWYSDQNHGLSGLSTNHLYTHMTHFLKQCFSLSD

SMILES strings stand for the structures. Like-named read-outs stand apart in the source and are kept apart here. Square brackets hold non-standard residues; d marks the D form. Peptide text beside a SMILES is read from it. * marks the point of attachment. DOTAGA = O=C(O)CN1CCN(CC(=O)O)CCN(C(CCC(=O)*)C(=O)O)CCN(CC(=O)O)CC1; DOTA = O=C(O)CN1CCN(CC(=O)O)CCN(CC(=O)*)CCN(CC(=O)O)CC1; Pyrrolidine(2S-CN,4,4-F2) = N#C[C@@H]1CC(F)(F)CN1*; boroPro = OB(O)[C@@H]1CCCN1*

Sequence of recombinant human prolyl oligopeptidase (PREP) (P48147 whole entry): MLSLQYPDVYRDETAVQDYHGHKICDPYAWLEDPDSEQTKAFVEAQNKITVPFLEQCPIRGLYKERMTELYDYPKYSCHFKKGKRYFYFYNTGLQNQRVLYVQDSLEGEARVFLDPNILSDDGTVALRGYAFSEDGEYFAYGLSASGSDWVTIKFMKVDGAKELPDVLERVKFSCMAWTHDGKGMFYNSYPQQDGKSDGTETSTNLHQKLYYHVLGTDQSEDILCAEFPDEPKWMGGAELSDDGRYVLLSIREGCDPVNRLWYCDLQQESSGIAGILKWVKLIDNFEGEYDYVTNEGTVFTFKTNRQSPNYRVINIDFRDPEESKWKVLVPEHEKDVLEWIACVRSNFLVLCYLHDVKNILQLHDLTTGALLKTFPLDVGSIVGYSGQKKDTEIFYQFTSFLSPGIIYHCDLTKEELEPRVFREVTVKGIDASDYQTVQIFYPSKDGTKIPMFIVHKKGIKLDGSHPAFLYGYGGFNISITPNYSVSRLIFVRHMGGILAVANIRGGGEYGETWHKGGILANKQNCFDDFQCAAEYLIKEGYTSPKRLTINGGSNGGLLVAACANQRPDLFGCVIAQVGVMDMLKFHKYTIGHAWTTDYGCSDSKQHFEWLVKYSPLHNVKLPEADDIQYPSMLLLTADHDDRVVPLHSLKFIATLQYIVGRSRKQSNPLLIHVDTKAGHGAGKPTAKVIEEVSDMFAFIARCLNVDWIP

By IC50 is commonly meant the concentration that inhibits the measured activity by half. As for `C[C@@H](NC(=O)c1ccc(NC(=O)CCCCNC(=O)CN2CCN(CC(=O)O)CCN(CC(=O)O)CCN(CC(=O)O)CC2)cc1)C(=O)N1CCC[C@H]1B(O)O` [compound 6590], the IC50 amounted to 0.129 µM in assay [1] and 0.0016 µM in assay [2].

For `C[C@@H](NC(=O)c1ccc(CNC(=O)CCCNC(=O)CN2CCN(CC(=O)O)CCN(CC(=O)O)CCN(CC(=O)O)CC2)cc1)C(=O)N1CCC[C@H]1B(O)O` [compound 6591], the IC50 in assay [1] was 0.103 µM; in assay [2], 0.00036 µM.

On to `CC(C)[C@H](NC(=O)CCNC(=O)CN1CCN(CC(=O)O)CCN(CC(=O)O)CCN(CC(=O)O)CC1)C(=O)N[C@H](C)C(=O)N1CCC[C@H]1B(O)O` [compound 6615, DOTA-betaala-Val-D-ala-boroPro], for which the IC50 in assay [2] (Z-Gly-Pro-AMC, 1.2 nM enzyme) came out at 0.121 µM.

Take `CC(C)[C@H](NC(=O)CNC(=O)CNC(=O)CN1CCN(CC(=O)O)CCN(CC(=O)O)CCN(CC(=O)O)CC1)C(=O)N[C@H](C)C(=O)N1CC(F)(F)C[C@H]1C#N` [compound 6790] ({DOTA}-GGV[dA]-{Pyrrolidine(2S-CN,4,4-F2)}): the IC50 in assay [1] (Z-Gly-Pro-AMC, 0.6 nM enzyme) is 157 µM; in assay [2] (Z-Gly-Pro-AMC, 1.2 nM enzyme) it was 0.107 µM.

Consider `CC(C)[C@H](NC(=O)CNC(=O)CNC(=O)CCC(C(=O)O)N1CCN(CC(=O)O)CCN(CC(=O)O)CCN(CC(=O)O)CC1)C(=O)N[C@H](C)C(=O)N1CCC[C@H]1B(O)O` (stereo partly drawn) [compound 6794] ({DOTAGA}-GGV[dA]-boroPro), for which the IC50 in assay [1] (Z-Gly-Pro-AMC, 0.6 nM enzyme) came out at 17.4 µM; in assay [2] (Z-Gly-Pro-AMC, 1.2 nM enzyme), 0.033 µM.

Consider `CC(C)[C@H](NC(=O)CNC(=O)CCC(C(=O)O)N1CCN(CC(=O)O)CCN(CC(=O)O)CCN(CC(=O)O)CC1)C(=O)N[C@H](C)C(=O)N1CCC[C@H]1B(O)O` (stereo partly drawn) [compound 6795], for which the IC50 in assay [1] (Z-Gly-Pro-AMC, 0.6 nM enzyme) is 5.52 µM; in assay [2] (Z-Gly-Pro-AMC, 1.2 nM enzyme) it was 0.0089 µM.

For `CC(C)[C@H](NC(=O)CNC(=O)CNC(=O)CNC(=O)CCC(C(=O)O)N1CCN(CC(=O)O)CCN(CC(=O)O)CCN(CC(=O)O)CC1)C(=O)N[C@H](C)C(=O)N1CCC[C@H]1B(O)O` (stereo partly drawn) [compound 6808] ({DOTAGA}-GGGV[dA]-boroPro), the half-inhibitory concentration (IC50) in assay [2] (Z-Gly-Pro-AMC, 1.2 nM enzyme) was determined as 0.0115 µM.

Turning to `CC(C)[C@H](NC(=O)CNC(=O)CNC(=O)CNC(=O)CN1CCN(CC(=O)O)CCN(CC(=O)O)CCN(CC(=O)O)CC1)C(=O)N[C@H](C)C(=O)N1CCC[C@H]1B(O)O` [compound 6834] ({DOTA}-GGGV[dA]-boroPro), the half-inhibitory concentration (IC50) in assay [2] (Z-Gly-Pro-AMC, 1.2 nM enzyme) was 0.0268 µM.

Regarding `CC(C)[C@H](NC(=O)[C@@H](C)NC(=O)CNC(=O)CNC(=O)CNC(=O)CN1CCN(CC(=O)O)CCN(CC(=O)O)CCN(CC(=O)O)CC1)C(=O)N[C@H](C)C(=O)N1CCC[C@H]1B(O)O` [compound 6839] ({DOTA}-GGG[dA]V[dA]-boroPro), the IC50 in assay [2] (Z-Gly-Pro-AMC, 1.2 nM enzyme) is 0.021 µM.

Take `CC(C)[C@H](NC(=O)CNC(=O)CNC(=O)CNC(=O)CNC(=O)CNC(=O)CN1CCN(CC(=O)O)CCN(CC(=O)O)CCN(CC(=O)O)CC1)C(=O)N[C@H](C)C(=O)N1CCC[C@H]1B(O)O` [compound 6848] ({DOTA}-GGGGGV[dA]-boroPro): in assay [2] (Z-Gly-Pro-AMC, 1.2 nM enzyme), the IC50 was found to be 0.0148 µM.

On to `CC(C)[C@H](NC(=O)CNC(=O)CNC(=O)CNC(=O)CNC(=O)CNC(=O)CNC(=O)CN1CCN(CC(=O)O)CCN(CC(=O)O)CCN(CC(=O)O)CC1)C(=O)N[C@H](C)C(=O)N1CCC[C@H]1B(O)O` [compound 6850] ({DOTA}-GGGGGGV[dA]-boroPro), for which the IC50 in assay [2] (Z-Gly-Pro-AMC, 1.2 nM enzyme) is 0.021 µM.

In the case of `CC(C)[C@H](NC(=O)CNC(=O)CNC(=O)CNC(=O)CNC(=O)CCC(C(=O)O)N1CCN(CC(=O)O)CCN(CC(=O)O)CCN(CC(=O)O)CC1)C(=O)N[C@H](C)C(=O)N1CCC[C@H]1B(O)O` (stereo partly drawn) [compound 6868] ({DOTAGA}-GGGGV[dA]-boroPro), the half-maximal inhibitory concentration (IC50) in assay [2] (Z-Gly-Pro-AMC, 1.2 nM enzyme) is 0.021 µM.

On to `CC(C)[C@H](NC(=O)CNC(=O)CNC(=O)CNC(=O)CNC(=O)CNC(=O)CCC(C(=O)O)N1CCN(CC(=O)O)CCN(CC(=O)O)CCN(CC(=O)O)CC1)C(=O)N[C@H](C)C(=O)N1CCC[C@H]1B(O)O` (stereo partly drawn) [compound 6869] ({DOTAGA}-GGGGGV[dA]-boroPro), for which the IC50 in assay [2] (Z-Gly-Pro-AMC, 1.2 nM enzyme) turned out to be 0.0011 µM.

Consider `CC(C)[C@H](NC(=O)CNC(=O)CNC(=O)CNC(=O)CNC(=O)CNC(=O)CNC(=O)CCC(C(=O)O)N1CCN(CC(=O)O)CCN(CC(=O)O)CCN(CC(=O)O)CC1)C(=O)N[C@H](C)C(=O)N1CCC[C@H]1B(O)O` (stereo partly drawn) [compound 6870] ({DOTAGA}-GGGGGGV[dA]-boroPro), for which the IC50 in assay [2] (Z-Gly-Pro-AMC, 1.2 nM enzyme) is 0.0092 µM.

For `CC(C)[C@H](NC(=O)CCCCNC(=O)CN1CCN(CC(=O)O)CCN(CC(=O)O)CCN(CC(=O)O)CC1)C(=O)N[C@H](C)C(=O)N1CCC[C@H]1B(O)O` [compound 6940, DOTA-PEN-Val-D-alaboroPro], in assay [2] (Z-Gly-Pro-AMC, 1.2 nM enzyme), the IC50 was 0.0052 µM.

For `C[C@@H](NC(=O)c1ccc(NNC(=O)CCCCCNC(=O)CN2CCN(CC(=O)O)CCN(CC(=O)O)CCN(CC(=O)O)CC2)nc1)C(=O)N1CCC[C@H]1B(O)O` [compound 6958], the half-maximal inhibitory concentration (IC50) in assay [2] turned out to be 0.0032 µM.
